Columns and labels:
Lin-CD24+CD49f^hi cells = test: FACS quantification of stem cell-enriched Lin-CD24+CD49f hi mammary population (MaSC); type: in vivo, mouse; details: MPA for 3 days
Experimental: a,b, Induction of RANKL expression by the progesterone-derivative MPA. Nulliparous wild type females were s.c. implanted with slow-release MPA pellets or treated with surgery sham. a, RANKL mRNA was determined in purified mammary epithelial cells by qRT-PCR three days after implantation. Data are shown as fold change compared to sham treatment (+/−sem) (n=3). b, In situ […] immunostaining of progesterone receptor (PR, red) and RANKL (green) in mammary epithelial cells after 3d MPA treatment. c, Induction of soluble RANKL protein assayed on isolated mammary gland epithelial cells from control, but not in prolactin receptor mutant (PRL-R KO) females on day 3 after s.c. MPA implantation. […] Proliferation was determined by in situ Ki67 immunostaining. e,f, Marked increase of the stem cell-enriched CD24^+CD49^high population (MaSC) in MPA-treated mammary glands in control but not in RANK^Δmam mammary glands. e, Representative FACS profiles showing CD24 and CD49 expression of lineage negative (CD31^− (endothelial cells) CD45^− (hematopoietic cells) […] (erythroid cells)) of mammary MaSCs from MPA- or sham-treated 8-week old virgin females. f, Quantification of MaSC-enriched CD24^+CD49^high population from mammary glands of MPA- or sham-treated virgin RANK^Δmam and littermate control females. […]

[1] = tested on: SKBR3 breast cancer cells; test: Growth curve of SKBR3 cells, live cell counting; type: cell-based, human; details: RANKL 1 μg/ml, 3 days
Experimental: (§1) a, Western blotting for phosphorylated (P) p65 NFκB, total p65 NFκB, phosphorylated (P) IκBα, total IκBα, phosphorylated (P) ERK1/2, total ERK1/2, phosphorylated (P) p38-MAPK, and p38-MAPK in human SKBR3 breast cancer cells in response to RANKL stimulation (1 μg/ml). Data are representative of 3 experiments. b, Growth curve of SKBR3 breast cancer cells cultured in normal growth medium (control, DMEM supplemented with 10% FCS) or in the presence of RANKL (1 μg/ml). Cell numbers were determined by counting live cells (trypan blue-exclusion) over 3 days. c, Onset of palpable mammary tumors in NFATc1^Δmam (n=10) and age matched littermate control (n=16) females treated with MPA pellets and DMBA. Data are shown as percentage of tumor free mice after the last DMBA challenge. No significant difference was found. d, Quantification of NFATc1 mRNA expression in purified mammary epithelial cells (MECs) and MPA-driven mammary tumors from NFATc1^Δmam and littermate control females. mRNA was determined by qRT-PCR. Data are shown as fold change compared to control (+/−sem). n=5 Per group. *P<0.05 (Student's t-test).

[2] = tested on: human SKBR3 breast cancer cells; test: Western blotting of RANKL-stimulated SKBR3 cells; type: cell-based; details: RANKL 1 μg/ml
Experimental: as §1
The human epithelial breast tumor cell line SKBR3 and primary non-transformed mouse mammary epithelial cells were left untreated or stimulated with recombinant murine RANKL^ref. 9. Adenocarcinomas were isolated from control and mutant mice and total protein lysates prepared. […]

| Molecule | expansion of Lin-CD24+CD49f hi cells (Lin-CD24+CD49f^hi cells; RANKΔmam females) | expansion of Lin-CD24+CD49f hi cells (Lin-CD24+CD49f^hi cells; control females) | proliferation of SKBR3 cells [1] | NFκB, p38-MAPKs and ERK activation [2] |
| --- | --- | --- | --- | --- |
| CC(=O)O[C@]1(C(C)=O)CC[C@H]2[C@@H]3C[C@H](C)C4=CC(=O)CC[C@]4(C)[C@H]3CC[C@@]21C [MPA, medroxyprogesterone acetate] | did not occur | two-fold | – | – |
| RANKL: recombinant RANKL protein, ligand of RANK, used as stimulus (1 μg/ml or 1 μg i.p.) (protein, UniProt O35235 139-316, looked up) Tumor necrosis factor ligand …: FSGAPAMMEGSWLDVAQRGKPEAQPFAHLTINAASIPSGSHKVTLSSWYHDRGWAKISNMTLSNGKLRVNQDGFYYLYANICFRHHETSGSVPTDYLQLMVYVVKTSIKIPSSHNLMKGGSTKNWSGNSEFHFYSINVGGFFKLRAGEEISIQVSNPSLLDPDQDATYFGAFKVQDID | – | – | induced NFκB, p38-MAPKs and ERK activation and proliferation | induced NFκB, p38-MAPKs and ERK activation |
